In BigSolDB 2.1:

Structure (SMILES): CC1=NNC(=O)N(/N=C/c2cccnc2)C1
- solubility (mole fraction) (in 1,4-dioxane, 288.15 K): 0.000462
- solubility (mole fraction) (in 1,4-dioxane, 293.15 K): 0.00054
- solubility (mole fraction) (in 1,4-dioxane, 298.15 K): 0.000629
- solubility (mole fraction) (in 1,4-dioxane, 303.15 K): 0.000728
- solubility (mole fraction) (in 1,4-dioxane, 308.15 K): 0.000842
- solubility (mole fraction) (in 1,4-dioxane, 313.15 K): 0.000964
- solubility (mole fraction) (in 1,4-dioxane, 318.15 K): 0.0011
- solubility (mole fraction) (in DMF, 278.15 K): 0.0031
- solubility (mole fraction) (in DMF, 283.15 K): 0.00347
- solubility (mole fraction) (in DMF, 288.15 K): 0.00398
- solubility (mole fraction) (in DMF, 293.15 K): 0.00451
- solubility (mole fraction) (in DMF, 298.15 K): 0.00515
- solubility (mole fraction) (in DMF, 303.15 K): 0.00582
- solubility (mole fraction) (in DMF, 308.15 K): 0.00656
- solubility (mole fraction) (in DMF, 313.15 K): 0.00738
- solubility (mole fraction) (in DMF, 318.15 K): 0.00832
- solubility (mole fraction) (in DMSO, 293.15 K): 0.00762
- solubility (mole fraction) (in DMSO, 298.15 K): 0.00862
- solubility (mole fraction) (in DMSO, 303.15 K): 0.00985
- solubility (mole fraction) (in DMSO, 308.15 K): 0.0112
- solubility (mole fraction) (in DMSO, 313.15 K): 0.0126
- solubility (mole fraction) (in DMSO, 318.15 K): 0.0144
- solubility (mole fraction) (in NMP, 278.15 K): 0.00163
- solubility (mole fraction) (in NMP, 283.15 K): 0.00189
- solubility (mole fraction) (in NMP, 288.15 K): 0.0022
- solubility (mole fraction) (in NMP, 293.15 K): 0.00255
- solubility (mole fraction) (in NMP, 298.15 K): 0.00295
- solubility (mole fraction) (in NMP, 303.15 K): 0.00338
- solubility (mole fraction) (in NMP, 308.15 K): 0.00389
- solubility (mole fraction) (in NMP, 313.15 K): 0.00444
- solubility (mole fraction) (in NMP, 318.15 K): 0.00506
- solubility (mole fraction) (in isopropanol, 278.15 K): 0.000198
- solubility (mole fraction) (in isopropanol, 283.15 K): 0.000232
- solubility (mole fraction) (in isopropanol, 288.15 K): 0.00028
- solubility (mole fraction) (in isopropanol, 293.15 K): 0.000331
- solubility (mole fraction) (in isopropanol, 298.15 K): 0.000391
- solubility (mole fraction) (in isopropanol, 303.15 K): 0.000461
- solubility (mole fraction) (in isopropanol, 308.15 K): 0.00054
- solubility (mole fraction) (in isopropanol, 313.15 K): 0.000625
- solubility (mole fraction) (in isopropanol, 318.15 K): 0.000729
- solubility (mole fraction) (in n-butanol, 278.15 K): 0.000159
- solubility (mole fraction) (in n-butanol, 283.15 K): 0.00019
- solubility (mole fraction) (in n-butanol, 288.15 K): 0.000229
- solubility (mole fraction) (in n-butanol, 293.15 K): 0.000277
- solubility (mole fraction) (in n-butanol, 298.15 K): 0.000332
- solubility (mole fraction) (in n-butanol, 303.15 K): 0.000389
- solubility (mole fraction) (in n-butanol, 308.15 K): 0.00046
- solubility (mole fraction) (in n-butanol, 313.15 K): 0.000537
- solubility (mole fraction) (in n-butanol, 318.15 K): 0.000635
